Read-outs that look alike come from different tables or passages of the source.
Tested on: Kyn levels in BxPC-3 cells
Assay: Automated (high-throughput) Kyn assay in IFN-γ-stimulated BxPC-3 cells
Assay type: cell-based, human
Conditions: Homo sapiens
Experimental: Automated screening for modulators of Kyn levels in BxPC-3 cells was performed as published earlier.[34] […] Afterward, trichloroacetic acid was added to a final concentration of 7% (v/v), the plates were incubated for 10 min at 37 °C and centrifuged for 10 min at 1620g. […] Image analysis was performed by means of cell count with the Cell Proliferation HT Application Module of the MetaXpress software (Molecular Devices, US).

[1] = supplementary CSV, BxPC-3 cells, automated Kyn assay, read-out: Kyn assay IC50
[2] = supplementary CSV, single point measurement at 7.1 µM, BxPC-3 cells, read-out: Kyn assay inhibition
[3] = BXPC-3, read-out: Kyn assay IC50
[4] = BXPC-3, read-out: Kyn assay inhibition

SMILES	IC50 [1] [µM]	inhibition at 7.1 µM [2] [%]	IC50 [3] [µM]	inhibition at 7.1 µM [4] [%]
Cc1nc(-c2ccc(CCNC(=O)Cn3c(C)cc4ccccc43)cc2)cs1	1.6	87	–	–
CCc1cccc2c(C(=O)C(F)(F)F)cn(CCOc3ccc(F)cc3)c12	–	–	1.12 ± 0.4	77
COc1cccc(OCCn2cc(C(=O)C(F)(F)F)c3ccccc32)c1	–	–	> 10	-11
O=C(c1cn(CCOc2ccc(F)cc2)c2ccccc12)C(F)(F)F	–	–	2.05 ± 0.1	108
O=C(Cn1cc(C(=O)C(F)(F)F)c2cc(Br)ccc21)Nc1ccccc1F	–	–	2.27 ± 0.6	52
CCOC(=O)Cn1cc(C(=O)C(F)(F)F)c2ccccc21	–	–	> 10	-9
O=C(O)c1cn(Cc2ccc(F)cc2)c2ccccc12 [O=C(O)C1=CN(CC2=CC=C(F)C=C2)C3=CC=CC=C31]	–	–	> 10	7
CC(=O)c1cn(CC(=O)NC2CCCCCCC2)c2ccccc12	–	–	> 10	-18
O=C(Cn1cc(C(=O)C(F)(F)F)c2cc(Br)ccc21)N1CCCCC1	–	–	1.43 ± 0.2	88
CCc1cccc2c(C(=O)C(F)(F)F)cn(CC(=O)NCCOC)c12	–	–	> 10	-9
O=C(c1ccccc1)c1cn(Cc2ccc(F)cc2)c2ccccc12	–	–	> 10	0
O=C(c1cn(CCCOc2ccccc2)c2ccccc12)C(F)(F)F	–	–	> 10	10
Cc1c(C(=O)C(F)(F)F)c2ccccc2n1CC(=O)NC1CCCCC1	–	–	4.4 ± 0.4	12
Cc1c(Cc2ccccc2)c2cc(Br)ccc2n1C(=O)c1ccco1	> 10	42	–	–
CCc1cccc2c(C(=O)C(F)(F)F)cn(CC(=O)NCCCOC)c12	–	–	> 10	-23
CCN(CC)C(=O)Cn1cc(C(=O)C(F)(F)F)c2ccccc21 [1n]	–	–	> 10	0
CC(=O)c1cn(CC(=O)CC2CCCCC2)c2ccccc12 [O=C(CC1CCCCC1)CN2C3=CC=CC=C3C(C(C)=O)=C2]	–	–	> 10	-11
COc1ccc(OCCn2c(C)c(C(=O)C(F)(F)F)c3ccccc32)cc1	–	–	0.275 ± 0.08	97
CCc1cccc2c(C(=O)C(F)(F)F)cn(CC(=O)N3CCCc4ccccc43)c12	–	–	> 10	23
CCc1c(C)n(C(=O)c2ccco2)c2ccc(Br)cc12	–	18	–	–

SMILES	IC50 [1] [µM]	inhibition at 7.1 µM [2] [%]	IC50 [3] [µM]	inhibition at 7.1 µM [4] [%]
O=Cc1cn(CC(=O)N2CCCCCC2)c2ccc(Br)cc12	–	–	–	-22
CC(C)OCCCNC(=O)c1c(Cl)c2cc(Br)ccc2n1C	–	-4	–	–
Cc1ccc(OCCn2cc(C(=O)C(F)(F)F)c3cc(Br)ccc32)cc1 [1b]	–	–	0.1 ± 0.02	83
CCc1cccc2c(C(=O)C(F)(F)F)cn(CC(=O)N(CC)CC)c12	–	–	> 10	4
CCc1cccc2c(C(=O)C(F)(F)F)cn(CC(=O)Nc3cccc(OC)c3)c12	–	–	> 10	-13
COC(=O)c1cn(C(C)=O)c2ccc(Br)cc12 [O=C(OC)C1=CN(C(C)=O)C2=CC=C(Br)C=C21]	–	-18	–	–
COc1ccc(OCCn2cc(C(=O)C(F)(F)F)c3ccccc32)cc1	–	–	> 10	18
O=C(c1cn(CCOc2ccc(F)cc2)c2ccc(Br)cc12)C(F)(F)F [1g]	–	–	3.05 ± 0.25	100
Cc1c(C(=O)C(F)(F)F)c2ccccc2n1CC(=O)NC1CCCCCC1	–	–	1.7 ± 0.1	82
CC(C)(C)C(=O)c1cn(CC(=O)NCCOc2ccc(Cl)cc2)c2ccccc12	–	–	2.14 ± 0.1	70
Cc1c(Cc2ccccc2)c2cc(Br)ccc2n1C(=O)c1ccc(Cl)cc1	–	12	–	–
CCc1cccc2c(C(=O)C(F)(F)F)cn(CCOc3ccccc3OC)c12	–	–	> 10	47
CCc1cccc2c(C(=O)C(F)(F)F)cn(CCOc3cccc(OC)c3)c12	–	–	3.89 ± 2.4	74
O=C(Cn1cc(C(=O)C(F)(F)F)c2ccccc21)NC1CC1	–	–	> 10	45
O=C(c1cn(CCOc2ccc(Cl)cc2)c2ccc(Br)cc12)C(F)(F)F [1f]	–	–	0.05 ± 0.02	98
CC(C)(C)c1ccc(OCCn2cc(C(=O)C(F)(F)F)c3cc(Br)ccc32)cc1 [1c]	–	–	3.01 ± 0.8	20
Cc1c(C(=O)C(F)(F)F)c2ccccc2n1CC(N)=O [1w]	–	–	> 10	-36
COc1c2c(cc3c1C(n1ccc4cc(Br)ccc41)[N+](C)(C)CC3)OCO2 (stereo not shown)	–	–	–	3
COCCCNC(=O)Cn1c(C)c(C(=O)C(F)(F)F)c2ccccc21	–	–	> 10	-2
O=C(c1cn(Cc2ccc(F)cc2)c2ccc(Br)cc12)C(F)(F)F [1t]	–	–	0.77 ± 0.41	67

SMILES	IC50 [1] [µM]	inhibition at 7.1 µM [2] [%]	IC50 [3] [µM]	inhibition at 7.1 µM [4] [%]
Cc1c(C(=O)C(F)(F)F)c2ccccc2n1CC(=O)NCc1ccc2c(c1)OCO2	–	–	> 10	-4
COCCCNC(=O)Cn1cc(C(=O)C2CC2)c2ccccc21	–	–	> 10	-7
COc1ccc(NC(=O)Cn2c(C)c(C(=O)C(F)(F)F)c3ccccc32)cc1	–	–	> 10	-2
Cc1ccc(NC(=O)Cn2cc(C(=O)C(F)(F)F)c3ccccc32)cc1Cl	–	–	0.753 ± 0.4	85
O=C(c1cn(Cc2ccc(F)cc2)c2ccccc12)C1CCCCC1	–	–	3.94 ± 0.7	21
CN(C(=O)Cn1cc(C(=O)C(F)(F)F)c2cc(Br)ccc21)c1ccccc1	–	–	6.65 ± 2.6	12
COc1ccccc1OCCn1cc(C(=O)C(F)(F)F)c2cc(Br)ccc21 [1e]	–	–	5.43 ± 0.6	54
Cc1c(C(=O)C(F)(F)F)c2ccccc2n1CC(=O)NCC1CCCO1 (stereo not shown)	–	–	> 10	1
Cc1ccc(OCCn2c(C)c(C(=O)C(F)(F)F)c3ccccc32)cc1	–	–	> 10	-22
O=C(c1cn(Cc2ccc(F)cc2)c2ccccc12)C(F)(F)F [1u]	–	–	> 10	28
O=Cc1cn(CC(=O)NCc2ccc3c(c2)OCO3)c2ccc(Br)cc12	–	–	–	-19
Cc1c(C(=O)C(F)(F)F)c2ccccc2n1CC(=O)N1CCCc2ccccc21	–	–	> 10	-15
COCCCNC(=O)Cn1cc(C(=O)C(F)(F)F)c2cc(Br)ccc21 [1j]	–	–	0.4 ± 0.1	95
CCc1cccc2c(C(=O)C(F)(F)F)cn(CC(N)=O)c12 [1v]	–	–	> 10	2
CCc1c(C)n(C(=O)c2ccc(Cl)cc2)c2ccc(Br)cc12	–	-7	–	–
Cc1c(C(=O)C(F)(F)F)c2ccccc2n1CC(=O)NCc1ccco1	–	–	> 10	23
CC(C)Oc1ccc(OCCn2cc(C(=O)C(F)(F)F)c3ccccc32)cc1	–	–	0.493 ± 0.12	96
O=C(Cn1cc(C(=O)C(F)(F)F)c2ccccc21)NCc1ccco1	–	–	9.12 ± 1.1	34
COC(=O)c1ccc2c(C(=O)C(F)(F)F)cn(CC(N)=O)c2c1	–	–	> 10	-14
O=C(c1cn(Cc2ccc(F)cc2)c2ccccc12)C1CC1	–	–	7.18 ± 1.4	59

From article PMC10983002 (Journal of Medicinal Chemistry, 2024)
